Data set [1] deals with CV-A9. As to the kind of experiment: Time-of-addition assay, CV-A9. Particulars: 25 μM, RD cells, MOI 0.001. The class given is cell-based.
A further data set concerns the target CV-B3 3C^pro (Coxsackievirus B3, UniProt P03313). As to the kind of experiment: FRET-based protease assay, CV-B3 3C protease. The class given is biochemical. Particulars: 1 mM.
In a further data set the test system is CV-A9 2A^pro. As to the kind of experiment: FRET-based protease assay, CV-A9 2A protease. The class given is biochemical. To be noted: pre-incubated 30 min.
A further data set relates to IRES. Particulars: 293T cells, Fluc/Rluc.
A further data set deals with CV-A9 3D^pol (Coxsackievirus A9, UniProt P21404). As to the kind of experiment: In vitro RNA primer extension assay using 3D^pol.
Data set [2] relates to CV-A9. As to the kind of experiment: Primary screening for antiviral compounds by cytopathic effects (CPEs). Particulars: 10 μM, RD cells, 36 h.p.i. A general note: Damage to the host cells serves as the signal in cytopathic effect assays.
Data set [3] concerns CV-A9. As to the kind of experiment: Drug combination, Zero Interaction Potency (ZIP) model, SynergyFinder, CV-A9-infected RD cells. Particulars: CV-A9 MOI 0.001, RD cells; -10 to 10 additive.
Data set [4] has as its system EV-A71. As to the kind of experiment: Antiviral evaluation in vivo, EV-A71-infected BALB/c young mice (tissue viral load, H&E). Particulars: same dosing.
The subject of data set [5] is CV-A9. As to the kind of experiment: EC50 evaluation against CV-A9 in RD cells (viral nucleic acid load). Format: cell-based. Particulars: read-out: EC50 against CV-A9.
A further data set deals with CV-B3. As to the kind of experiment: EC50 evaluation against CV-B3 in Vero E6 cells (viral nucleic acid load). The class given is cell-based.
Data set [6] concerns EV-A71. As to the kind of experiment: microbe, parasite or virus in culture. The class given is cell-based. Particulars: Enterovirus A, EVA71, RD, read-out: EC50 against EV-A71.
A further data set relates to PV1. As to the kind of experiment: microbe, parasite or virus in culture. The class given is cell-based, poliovirus 1. To be noted: Enterovirus C, RD, read-out: EC50 against PV1.
A further data set deals with Echo-11. As to the kind of experiment: EC50 evaluation against Echo-11 in RD cells. The class given is cell-based.
Data set [7] concerns CV-A9. As to the kind of experiment: EC50 evaluation against CV-A9 in Huh-7 cells. The class given is cell-based.
A short description of data set [8]: CC50 evaluation, CellTiter-Blue cell viability assay, RD cells. Format: cell-based. To be noted: human, RD cells (human rhabdomyosarcoma), parallel to CV-A9 assay. Background: Alamar Blue is a resazurin reagent that responds to reducing activity.
The next data set has as its system MCP-1. As to the kind of experiment: Cytokine expression analysis, MCP-1 mRNA in CV-A9-infected RD cells. The class given is cell-based, Human. Particulars: MOI 0.001, 24 h. As to the method: (§1) Figure S13. Effect of bioactive compounds on the expression of MCP-1 and COX-
(§2) 2 induced by CV-A9 infection.
(§3) MCP-1 (a) and COX-2 (b) mRNA levels in RD cells were quantified by RT-qPCR at
(§4) 24 h.p.i following CV-A9 infection (MOI=0.001) and treatment with 50 μM velutin,
(§5) isorhamnetin, or (−)-epicatechin gallate. Representative curves of at least two

In another data set the test system is COX-2. As to the kind of experiment: Cytokine expression analysis, COX-2 mRNA in CV-A9-infected RD cells. The class given is cell-based, Human. To be noted: MOI 0.001, 24 h. As to the method:
as §1, §2, §3, §4, §5

The nature of data set [9]: in vitro. To be noted: African green monkey.
A short description of data set [10]: in vitro. Particulars: human.
The subject of a further data set is IL-6. As to the kind of experiment: Cytokine expression analysis, IL-6 mRNA in CV-A9-infected RD cells. To be noted: Homo sapiens, 24 h, read-out: inhibition of CV-A9-induced IL-6 upregulation.
Another data set deals with TNF-α. As to the kind of experiment: Cytokine expression analysis, TNF-α mRNA in CV-A9-infected RD cells.
Data set [11] deals with CV-A9. As to the kind of experiment: organism not typed. The class given is cell-based. To be noted: for inhibition at 25 µM: RD.
For data set [12], the system named is CV-A9. As to the kind of experiment: Post-entry inhibitory effect (viral RNA kinetics), CV-A9 in RD cells. Format: cell-based. To be noted: 25 μM added at 2 h post-infection, cells and supernatants.
Setting [13] is: Vero C1008, read-out: EC50 against CV-B3.
Where [14] appears, read: Huh-7, read-out: EC50 against CV-A9.
The mark [15] stands for this setting: read-out: inhibition of CV-A9 attachment.

Read-outs that look alike come from different tables or passages of the source. A value given as a limit tells only on which side of the number the result lay.

Sequence of CV-A9 3D^pol (P21404 1740-2201): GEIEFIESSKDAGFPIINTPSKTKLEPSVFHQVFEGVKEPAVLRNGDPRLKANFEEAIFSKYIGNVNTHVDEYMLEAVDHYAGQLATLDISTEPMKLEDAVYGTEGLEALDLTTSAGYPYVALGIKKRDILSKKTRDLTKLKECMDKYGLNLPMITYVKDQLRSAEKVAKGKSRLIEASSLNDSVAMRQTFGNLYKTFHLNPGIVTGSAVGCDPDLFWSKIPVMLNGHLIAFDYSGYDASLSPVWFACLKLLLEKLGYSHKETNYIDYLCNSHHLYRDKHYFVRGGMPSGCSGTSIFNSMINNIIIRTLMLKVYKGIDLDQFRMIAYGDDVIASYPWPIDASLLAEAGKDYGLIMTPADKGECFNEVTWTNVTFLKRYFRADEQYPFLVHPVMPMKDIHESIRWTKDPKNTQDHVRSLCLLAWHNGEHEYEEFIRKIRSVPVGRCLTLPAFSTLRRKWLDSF
Sequence of CV-B3 3C^pro (P03313 1541-1723): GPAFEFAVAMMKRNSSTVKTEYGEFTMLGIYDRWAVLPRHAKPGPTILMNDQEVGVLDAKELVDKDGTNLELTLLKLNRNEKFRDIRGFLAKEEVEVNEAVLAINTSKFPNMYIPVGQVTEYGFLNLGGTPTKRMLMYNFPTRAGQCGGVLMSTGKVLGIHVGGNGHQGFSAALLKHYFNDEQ

For the molecule `O=C(O[C@@H]1Cc2c(O)cc(O)cc2O[C@@H]1c1ccc(O)c(O)c1)c1cc(O)c(O)c(O)c1` [(−)-epicatechin gallate], in the data set with CV-A9 [1], the “phase-specific activity, time-of-addition, CV-A9” value (“phase-specific activity” below) is “pan-stage suppression spanning both entry and post-entry phases”. Further, the “inhibition of CV-B3 3C^pro protease activity” value at CV-B3 3C^pro was “about 50%”. Moreover, in the data set with CV-A9 2A^pro, the “inhibitory activity against 2A^pro” value is “no inhibitory activity”. Further, the CC50 in the data set on Vero E6 cells and with Huh-7 cells was above 100 µM throughout. The “inhibitory activity against IRES elements” value in the data set on IRES is reported as “no inhibitory activity”. Moreover, the “inhibitory activity against 3D^pol” value against CV-A9 3D^pol is “no inhibitory activity”. For the same molecule, the “primary screening result by CV-A9-induced CPEs” value (shortened to “primary screening result”) with CV-A9 [2] is listed as “identified as CV-A9 inhibitors”. Besides, in the data set on CV-A9 [3], the “ZIP score of the combination with velutin” value (shortened to “ZIP score of the combination”) was 1.443.

With `Nc1ccc(C(=O)Nc2cccc(-c3nc(N4CCOCC4)c4oc5ncccc5c4n3)c2)cn1` [YM-201636, reference compound], the “intestinal histopathology (H&E)” value in the data set with EV-A71 [4] is listed as “partial shedding of intestinal epithelial cells”.

What is called EC50 is the concentration needed to bring the measured effect to its halfway point. Broadly, the inhibition is the drop in the measured response relative to a control, in per cent. As to `COc1cc(-c2oc3cc(O)cc(O)c3c(=O)c2O)ccc1O` [isorhamnetin], the EC50 in the data set with CV-A9 [5] (RD cells, MOI 0.001) came out at 2.23 µM; with CV-B3 (Vero C1008, MOI 0.001, read-out: EC50 against CV-B3) it was 1.62 µM; in the data set on EV-A71 [6], 14.6 µM; in the data set on PV1, 13.9 µM; in the data set with Echo-11 (MOI 0.005, read-out: EC50 against Echo-11), 20.6 µM; with CV-A9 [7] (Huh-7 cells, read-out: EC50 against CV-A9), 9.07 µM. For the same molecule, the CC50 (in data set [8]; in the data set “in vitro [9]”; in the data set “in vitro [10]”) was above 100 µM each time. In the data set with CV-A9 [1], the “phase-specific activity” value was “pan-stage suppression spanning both entry and post-entry phases”. The inhibition at 1000 µM at CV-B3 3C^pro is around 50%. In addition, in the data set with CV-A9 2A^pro, the “inhibitory activity against 2A^pro” value is given as “no inhibitory activity”. Moreover, the “inhibition of CV-A9-induced MCP-1 upregulation” value in the data set with MCP-1 (50 μM) is given as “without significant effects”. For the same molecule, the “inhibition of CV-A9-induced COX-2 upregulation” value in the data set on COX-2 (50 μM) is given as “without significant effects”. The “inhibitory activity against IRES elements” value in the data set on IRES was “no inhibitory activity”. Further, the “inhibitory activity against 3D^pol” value against CV-A9 3D^pol is recorded as “no inhibitory activity”. The inhibition at 50 µM in the data set with IL-6 was around 60%. The “inhibition of CV-A9-induced TNF-α upregulation” value in the data set with TNF-α (50 μM, RD cells, MOI 0.001, 24 h) is on record as “without significant effects”. For the same molecule, the “primary screening result” value in the data set on CV-A9 [2] is given as “identified as CV-A9 inhibitors”. Further, the “ZIP score of the combination” value in the data set with CV-A9 [3] was 3.126.

As to `Oc1cccc(O)c1O` [pyrogallol], the concentration giving a half-maximal response (EC50) in the data set on CV-A9 [5] (RD) is 10.5 µM; in the data set on CV-B3 (setting [13]), 1.78 µM; with EV-A71 [6], above 100 µM; in the data set on PV1, above 100 µM; in the data set on Echo-11 (read-out: EC50 against Echo-11), above 100 µM; in the data set with CV-A9 [7] (setting [14]), 8.83 µM. Further, the CC50 (in [8]; in the data set “in vitro [9]”; in the data set “in vitro [10]”) was above 100 µM in each case. Also, the “phase-specific activity” value with CV-A9 [1] was “exclusively targeted viral attachment”. Further, the “inhibition of CV-A9 internalization” value with CV-A9 [11] (25 µM) was “without affecting cellular internalization”. Further, in the data set on CV-A9 [11] (setting [15]), the inhibition at 25 µM worked out at 32.4%. Moreover, the “primary screening result” value in the data set on CV-A9 [2] is “identified as CV-A9 inhibitors”. The “ZIP score of the combination” value with CV-A9 [3] came out at 1.684.

Turning to `COc1cc(O)c2c(=O)cc(-c3ccc(O)c(OC)c3)oc2c1` [velutin], the EC50 is 0.76 µM in the data set on CV-A9 [5] (RD); 2.26 µM with CV-B3 (setting [13]); 2.18 µM in the data set on EV-A71 [6]; 0.96 µM in the data set on PV1; 0.69 µM with Echo-11 (read-out: EC50 against Echo-11); 3.7 µM with CV-A9 [7] (setting [14]). The CC50 (in [8]; in “in vitro [9]”; in the data set “in vitro [10]”) was above 100 µM throughout. Moreover, the “phase-specific activity” value with CV-A9 [1] was “pan-stage suppression spanning both entry and post-entry phases”. In addition, the figures for the inhibition at 25 µM in the data set with CV-A9 [11] (setting [15]) and in the data set with CV-A9 [11] (read-out: inhibition of CV-A9 internalization) were 40.5% and 38.2%, respectively. Besides, in the data set with CV-A9 [12], the “post-entry viral load kinetics, CV-A9” value is “significantly suppressed intra- and extracellular viral proliferation”. The “inhibitory activity against 2A^pro” value in the data set with CV-A9 2A^pro is recorded as “no inhibitory activity”. The inhibition at 50 µM is 20% with MCP-1 (Homo sapiens, read-out: inhibition of CV-A9-induced MCP-1 upregulation); 70 to 80% in the data set with COX-2 (Homo sapiens, read-out: inhibition of CV-A9-induced COX-2 upregulation); 70 to 80% in the data set with IL-6; 70 to 80% in the data set on TNF-α (Homo sapiens, RD, 24 h, read-out: inhibition of CV-A9-induced TNF-α upregulation). In addition, the “inhibitory activity against IRES elements” value with IRES is listed as “no inhibitory activity”. Moreover, the “inhibitory activity against 3D^pol” value against CV-A9 3D^pol was “no inhibitory activity”. Further, the “primary screening result” value in the data set with CV-A9 [2] is “identified as CV-A9 inhibitors”. The “intestinal histopathology (H&E)” value in the data set on EV-A71 [4] was “no hydropic degeneration of the epithelial cells”.

Source of the values: publication PMC12650729 (Biology, 2025).
